Results as given in patent USRE36520E, “HMG-CoA reductase inhibitors” (Merck & Co., Inc., priority 1998, dated 2000).

Test system: not listed separately
Experiment: Stability of the free dihydroxy acid on standing
Format: physicochemical
Details: dihydroxy acid can be maintained by increasing the pH above 7.0
Description: The sodium salt of the compound II from Example 64 is dissolved in 2 ml of ethanol-water (1:1; v:v) and added to 10 ml of 1N hydrochloric acid from which the dihydroxy acid is extracted with ethyl acetate. The organic extract is washed once with water, dried (Na2 SO4), and evaporated in vacuo with a bath temperature not exceeding 30° C. […] The dihydroxy acid can be maintained by increasing the pH above 7.0.

Row | Compound | reversion of dihydroxy acid to parent lactone
1 | CCC(C)(C)C(=O)O[C@H]1C[C@@H](CO)C[C@@H]2CC[C@H](C)[C@H](CC[C@@H](O)C[C@@H](O)CC(=O)O)[C@H]21 [Example 70] | slowly reverts to the corresponding,parent lactone on standing

Test system: HMG-CoA reductase
Sequence (P51639 425-887 limits assumed): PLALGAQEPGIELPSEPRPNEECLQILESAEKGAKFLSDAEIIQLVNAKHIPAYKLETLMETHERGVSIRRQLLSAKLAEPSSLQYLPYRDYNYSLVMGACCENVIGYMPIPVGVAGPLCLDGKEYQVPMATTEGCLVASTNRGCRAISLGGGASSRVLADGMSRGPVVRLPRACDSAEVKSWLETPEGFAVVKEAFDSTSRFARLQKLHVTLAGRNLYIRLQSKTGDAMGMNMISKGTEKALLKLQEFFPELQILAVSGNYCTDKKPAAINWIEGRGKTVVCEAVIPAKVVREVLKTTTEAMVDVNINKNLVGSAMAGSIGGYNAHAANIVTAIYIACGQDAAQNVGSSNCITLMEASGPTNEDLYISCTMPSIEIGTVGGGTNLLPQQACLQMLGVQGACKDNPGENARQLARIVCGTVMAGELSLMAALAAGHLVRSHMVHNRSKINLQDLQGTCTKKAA
Experiment: HMG-CoA reductase inhibition assay (in vitro protocol of J. Med. Chem., 28, 347-358)
Format: biochemical
Details: relative to compactin arbitrarily assigned a value of 100; IC50 compared with that of compactin determined simultaneously; tested as sodium salt of dihydroxy acid form; enzyme solubilized from rat liver microsomes
Description: The intrinsic HMG-CoA reductase inhibition activity of the claimed compounds is measured in the in vitro protocol published in J. Med. Chem., 28, p. 347-358 (1985) and described below: Male Holtzman Sprague-Dawley rats (225-250 g) were kept on reversed lighting and fed Purina rat chow containing 3% cholestyramine for 7 days preceding their sacrifice by CO2 asphyxiation. Livers were removed 6 hours into the dark cycle and used immediately to prepare microsomes. HMG-CoA reductase was solubilized from the freshly prepared microsomes by the method of Heller and Shrewsbury [J. Biol. Chem., 1976, 251, 3815] and purified through the second ammonium sulfate precipitation step as described by Kleinsek et al. [Proc. Natl. Acad. Sci. USA, 1977, 74, 1431]. […] The enzyme preparation was stored at -80° C. The assay is essentially the procedure of Shefer et al. [J. Lipid Res., 1972, 13, 402]. The complete assay medium contained the following in a total volume of 0.8 ml: phosphate buffer, pH 7.2, 100 mM; MgCl2, 3 mM; NADP, 3 mM; glucose-6-phosphate, 10 mM; glucose-6-phosphate dehydro-genase, 3 enzyme units; reduced glutathione, 50 mM; HMG-CoA (qlutaryl-3-^14 C, New England Nuclear), 0.2 mM (0.1 μCi); and partially purified enzyme stock solution, 100 μL. […] After a 40-minute incubation at 37° C. with shaking and exposure to air, the reaction was stopped by the addition of 0.4 mL of 8N HCl. After an additional 30-minute incubation period at 37° C. to ensure the complete lactonization of mevalonic acid to mevalonolactone, 0.2 ml of the mixture was added to an 0.5×5.0 cm column containing 100-200 mesh Bio-Rex 5, chloride form (Bio-Rad), wetted with distilled water, as described by Alberts et al. [Proc. Natl. Acad. Sci. U.S.A., 1980, 77, 3967]. The unreacted [^14 C]HMG-CoA was absorbed on the resin and the [^14 C]mevalonolactone was eluted with distilled water (2×1 ml) directly into 7-ml scintillation vials. Five milliliters of Aquasol-2 (New England Nuclear) was added to each vial, and radioactivity was measured in a Packard Tri Carb Prias scintillation counter. IC50 values were determined by plotting percentage inhibition against test compound concentration and fitting a straight line to the resulting data by using the least-squares method.

Row | Compound | Relative Potency
2 | 6(R)-[2-[8(S)-(2,2-dimethylbutyryloxy)-2(S)-methyl-6(S)-(1-hydroxyethyl)-1,2,3,4,4a,(S),5,6,7,8,8a(R)-decahydronaphthyl-1(S)]ethyl]-4(R)-hydroxy-3,4,5,6-tetrahydro-2H-pyran-2-one [-- -- -- S CHOHCH3 (ISOMER B) 1,1-dimethylpropyl] | 113
3 | 6(R)-[2-[8(S)-(2-methylbutyryloxy)-6(S)-carboxy-2(S)-methyl-1,2,6,7,8,8a(R)-hexahydronaphthyl-1(S)]ethyl]-4(R)-hydroxy-3,4,5,6-tetrahydro-2H-pyran-2- one [db -- db S CO2 H sec-butyl] | 26
4 | 6(R)-[2-[8(S)-(2,2-dimethylbutyryloxy)-2(S)-methyl-6(R)-(1-hydroxyethyl)-1,2,3,4,4a(S),5,6,7,8,8a(S)-decahydronaphthyl-1(S)]ethyl]-4(R)-hydroxy-3,4,5,6-tetrahydro-2H-pyran-2-one [-- -- -- R CHOHCH3 (ISOMER B) 1,1-dimethylpropyl] | 104
5 | 6(R)-[2-[8(S)-(2,2-Dimethylbutyryloxy)-2(S)-methyl-6(S)-carboxy-1,2,3,4,4a(S),5,6,7,8,8a(S)-decahydronaphthyl-1(S)]-ethyl]-4(R)-hydroxy-3,4,5,6-tetrahydro-2H-pyran-2-one [-- -- -- S CO2 H 1,1-dimethylpropyl] | 79
6 | 6(R)-[2-[8(S)-(2,2-Dimethylbutyryloxy)-2(S)-methyl-6(S)-isopropoxycarbonyl-1,2,3,4,4a(S),5,6,7,8,8a(S)-decahydronaphthyl-1(S)]ethyl]-4(R)-hydroxy-3,4,5,6-tetrahydro-2H-pyran-2-one [-- -- -- S CO2-i-Pr 1,1-dimethylpropyl] | 80
7 | 6(R)-[2-[8(S)-(2,2-dimethylbutyryloxy)-2(S)-methyl-6(S)-hydroxymethyl-1,2,3,4,4a(S),5,6,7,8,8a(S)-decahydronaphthyl-1(S)]ethyl]-4(R)-hydroxy-3,4,5,6- tetrahydro-2H-pyran-2-one [-- -- -- S CH2 OH 1,1-dimethylpropyl] | 86
8 | 6(R)-[2-[8(S)-(2,2-Dimethylbutyryloxy)-6(R)-hydroxymethyl-2(S)methyl-1,2,3,4,6,7,8,8a(R)-octahydronaphthyl-1(S)]ethyl]-4(R)-hydroxy-3,4,5,6-tetrahydro-2H-pyran-2-one [db -- -- R CH2 OH 1,1-dimethylpropyl] | 213
9 | 6(R)-[2-[8(S)-(2,2-Dimethylbutyryloxy)-2(S)-methyl-6(S)-(α-hydroxybenzyl)-1,2,3,4,4a(S),5,6,7,8,8a-(S)-decahydronaphthyl-1(S)]ethyl]-4(R)-hydroxy-3,4,5,6-tetrahydro-2H-pyran-2-one [-- -- -- S CHOHPH 1,1-dimethylpropyl] | 220
10 | 6(R)-[2-[8(S)-(2,2-Dimethylbutyryloxy)-6(S)-(N,N-dimethyl)aminocarbonyl-2(S)methyl-1,2,6,7,8,8a(R)-hexahydronaphthyl-1(S)]ethyl]-4(R)-hydroxy-3,4,5,6-tetrahydro-2H-pyran-2-one [db -- db S CONMe2 1,1-dimethylpropyl] | 82
11 | 6(R)-[2-[8(S)-(2,2-dimethylbutyryloxy)-2(S)-methyl-6(S)-(2,2-dimethylbutyryloxymethyl)-1,2,3,4,4a(S),5,6,7,8,8a(S)-decahydronaphthyl-1(S)]ethyl]-4(R)-hydroxy-3,4,5,6-tetrahydro-2H-pyran-2-one | 100
12 | 6(R)-[2-[8(S)-(2,2-Dimethylbutyryloxy)-6(S)-hydroxymethyl-2(S)-methyl-1,2,6,7,8,8a(R)-hexahydronaphthyl-1(S)]ethyl]-4(R)-hydroxy-3,4,5,6-tetrahydro-2H-pyran-2-one [db -- db S CH2 OH 1,1-dimethylpropyl] | 189
13 | 6(R)-[2-[8(S)-(2,2-dimethylbutyryloxy)-6(S)-(N,N-diethyl)aminocarbonyl-2(S)-methyl-1,2,6,7,8,8a(R)-hexahydronaphthyl-1(S)]ethyl]-4(R)-hydroxy-3,4,5,6-tetrahydro-2H-pyran-2-one [db -- db S CONEt2 1,1-dimethylpropyl] | 65
14 | 6(R)-[2-[8(S)-(2,2-Dimethylbutyryloxy)-6(R)-(2,2-dimethylbutyryloxymethyl)-2(S)-methyl-1,2,3,4,6,7,8,8a(R)-octahydronaphthyl-1(S)]-ethyl]-4(R)-hydroxy-3,4,5,6-tetrahydro-2H-pyran-2-one | 33
15 | 6(R)-[2-[8(S)-(2,2-dimethylbutyryloxy)-2(S)-methyl-6(R)-(1-hydroxyethyl)-1,2,3,4,4a(S),5,6,7,8,8a(S)-decahydronaphthyl-1(S)]ethyl]-4(R)-hydroxy-3,4,5,6-tetrahydro-2H-pyran-2-one [-- -- -- R CHOHCH3 (ISOMER A) 1,1-dimethylpropyl] | 111
16 | 6(R)-[2-[8(S)-(2,2-Dimethylbutyryloxy)-2(S)-methyl-6(S)-ethoxycarbonyl-1,2,3,4,4a(S),5,6,7,8,8a(S)-decahydronaphthyl-1(S)]ethyl]-4(R)-hydroxy-3,4,5,6-tetrahydro-2H-pyran-2-one [-- -- -- S CO2 Et 1,1-dimethylpropyl] | 125
17 | 6(R)-[2-[8(S)-(2-methylbutyryloxy)-2(S)-methyl-6(R)-(hydroxymethyl)-1,2,6,7,8,8a(R)-hexahydronaphthyl-1(S)]ethyl]-4(R)-hydroxy-3,4,5,6-tetrahydro-2H- pyran-2-one [db -- db R CH2 OH sec-butyl] | 47
18 | 6(R)-[2-[8(S)-(2,2-dimethylbutyryloxy)-2(S)-methyl-6(S)-(1-hydroxyethyl)-1,2,3,4,4a,(S),5,6,7,8,8a(R)-decahydronaphthyl-1(S)]ethyl]-4(R)-hydroxy-3,4,5,6-tetrahydro-2H-pyran-2-one [-- -- -- S CHOHCH3 (ISOMER A) 1,1-dimethylpropyl] | 131
19 | 6(R)-[2-[8(S)-(Cyclohexylcarbonyloxy)-6(S)-hydroxymethyl-2(S)-methyl-1,2,3,4,4a(S),5,6,7,8,8a(S)-decahydronaphthyl-1(S)]ethyl]-4(R)-hydroxy-3,4,5,6-tetrahydro-2H-pyran-2-one [-- -- -- S CH2 OH cyclohexyl] | 33
20 | 6(R)-[2-[8(S)-(2,2-Dimethylbutyryloxy)-2(S)-methyl-6(S)-aminocarbonyl-1,2,3,4,4a(S),5,6,7,8,8a(S)-decahydronaphthyl-1(S)]ethyl]-4(R)-hydroxy-3,4,5,6- tetrahydro-2H-pyran-2-one [-- -- -- S CONH2 1,1-dimethylpropyl] | 107
21 | 6(R)-[2-[8(S)-(2,2-Dimethylbutyryloxy)-6(R)-carboxy-2(S)-methyl-1,2,6,7,8,8a(R)-hexahydronaphthyl-1(S)]ethyl]-4(R)-hydroxy-3,4,5,6-tetrahydro-2H-pyran-2-one [db -- db R CO2 H 1,1-dimethylpropyl] | 94
22 | 6(R)-[2-[8(S)-(2,2-Dimethylbutyryloxy)-6(S)-carboxy-2(S)-methyl-1,2,6,7,8,8a(R)-hexahydronaphthyl-1(S)]ethyl]-4(R)-hydroxy-3,4,5,6-tetrahydro-2H-pyran-2-one [db -- db S CO2 H 1,1-dimethylpropyl] | 99
23 | 6(R)-[2-[8(S)-(2,2-Dimethylbutyryloxy)-2(S)-methyl-6(S)-(N,N-dimethyl)aminocarbonyl-1,2,3,4,4a(S),5,6,7,8,8a(S)-decahydronaphthyl-1(S)]-ethyl]-4(R)-hydroxy-3,4,5,6-tetrahydro-2H-pyran-2-one [-- -- -- S CONMe2 1,1-dimethylpropyl] | 75
